# Data taken from patent US6420375B1, “Fused ring compounds, process for producing the same and use thereof” (Takeda Chemical Industries, Ltd., priority 1997, dated 2002).
# Molecular target: T1, rat steroid C17-20-lyase (Rattus norvegicus, UniProt P11715)
# T1 construct: testicular microsomes were prepared by a series of centrifugation; from tissue; host or cells: testicular microsomes from 13-week old male SD rats
# T1 sequence (P11715 1-507): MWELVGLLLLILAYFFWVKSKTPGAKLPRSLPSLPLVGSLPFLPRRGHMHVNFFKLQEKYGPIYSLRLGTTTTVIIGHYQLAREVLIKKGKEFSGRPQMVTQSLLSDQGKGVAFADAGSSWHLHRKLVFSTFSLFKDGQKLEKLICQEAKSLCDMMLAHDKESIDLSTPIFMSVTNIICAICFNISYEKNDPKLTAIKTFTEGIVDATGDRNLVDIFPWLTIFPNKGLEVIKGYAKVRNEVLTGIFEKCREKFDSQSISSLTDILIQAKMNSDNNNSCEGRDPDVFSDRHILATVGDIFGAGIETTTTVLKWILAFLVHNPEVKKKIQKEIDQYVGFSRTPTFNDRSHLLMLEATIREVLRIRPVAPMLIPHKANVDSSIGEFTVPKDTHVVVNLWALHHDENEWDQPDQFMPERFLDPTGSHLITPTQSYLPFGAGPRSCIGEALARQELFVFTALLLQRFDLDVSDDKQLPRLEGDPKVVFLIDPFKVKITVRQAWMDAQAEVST
# Assay: Assay of inhibitory activity on rat steroid C17-20-lyase in vitro
# Format: biochemical
# Details: testicular microsomes of male SD rats; 10 nM [1,2-3H]-17α-hydroxyprogesterone, NADPH; 7 min at 37° C.; concentration reducing products (testosterone and androstenedione) by 50%
# Protocol: Assay of inhibitory activity on rat steroid C17-20-lyase in vitro
# Inhibitory activity was determined according to the method described in The Prostate, vol.26, 140-150(1995) with some modifications.
# Testes excised from 13-week old, male SD rats were homogenized, and testicular microsomes were prepared by a series of centrifugation. The microsome protein (7 μg/10 μl) was added to 10 μl of 100 mM phosphate buffer (pH 7.4) in which 10 nM (final concentration) [1,2-^3H]-17α-hydroxyprogesterone, NADPH, and test compounds were dissolved. The reaction mixture was incubated for 7 min at 37° C., terminated by addition of 40 μl of Ethyl acetate, and briefly centrifuged. The substrate and the products (testosterone and androstenedione) in the upper phase were separated by silica gel thin layer chromatography. Detection of the spots and measurement of the radioactivity were performed by a BAS 2000 Bioimage analyzer. The concentration of the test compounds necessary to reduce the concentration of the products by 50% (The concentration in the control group in which no test compound was added was taken as 100%) was calculated, and shown in Table 1.
row,SMILES,IC50
1,C(=C\c1ccc2ccccc2c1)/Cn1ccnc1,26 nM
2,C/C(=C\Cn1ccnc1)c1ccc2ccccc2c1,13 nM
3,C/C(=C\c1ccc2ccccc2c1)Cn1ccnc1,20 nM
4,C(=C\c1ccc2ccccc2c1)/Cc1cccnc1,100 nM
5,C(=C\c1ccc2c(c1)CCCC2)/c1ccncc1,190 nM
6,C/C(=C\Cn1ccnc1)c1ccc2c(c1)CCCC2,28 nM
